# Test results taken from PMC8585833, “Serum concentrations of antidepressants, antipsychotics, and antiepileptics over the bariatric surgery procedure” (European Journal of Clinical Pharmacology, 2021).
# Like-named read-outs stand apart in the source and are kept apart here.
# What was measured:
# [1] = Dose-adjusted steady-state trough serum concentrations before and after low-calorie diet and bariatric surgery; format: in vivo, human; settings: for Reduction of dose-adjusted concentration on the last day of sampling: post-surgery versus pre-surgery, substances with samples from six or more participants; for Course of dose-adjusted concentration after surgery: following the low-calorie diet; for Change in dose-adjusted concentration over the pre-surgery low-calorie diet: after the pre-surgery diet, before surgery, median weight reduction 6 kg
# Description: We designed the study as a naturalistic longitudinal, prospective case series with intra-individual comparisons of drug concentrations over time, before and up to 1 year after the surgical procedure.
# The participants contributed blood samples to the current study during routine pre-surgery visits before, and post-surgery visits about 8 weeks, 6 months, and 1 year after, the surgery. Pre-surgery sampling generally occurred twice: at an initial preoperative assessment visit, and just before surgery. Between these visits, that is, before surgery, patients were required to adhere to a low-calorie diet and show a weight reduction. The samples were stored as serum in −80 °C at a biobank, and analysed after all samples had been collected.
# Before every routine visit at which the sampling was to occur, we contacted the participants by telephone to systematically obtain information on the current dose as well as adherence to the drug treatment in question over the 2 preceding weeks. Samples were excluded from the data set if non-adherence less than four elimination half-lives prior to sampling was reported; exceptions were made for occasional missed doses of fluoxetine. Half-lives applied were those described for a drug or its metabolite in the summary of product characteristics. We also asked for and recorded concomitant drug treatment, weight, and smoking status. To be able to relate potential changes in concentration to health consequences, we asked the participants during the follow-up phone calls, using an open question, if anything had happened to their health since the last visit. To obtain trough blood concentrations, we strived to schedule the routine visits before lunchtime and the participants were instructed not to take morning tablets before the sampling.
# Specific substances were analysed concomitantly, using clinical routine methods, at accredited laboratories at the Department of Clinical Chemistry, Sahlgrenska University Hospital, Gothenburg, Sweden, or (as for gabapentin, hydroxybupropion, mianserine, pregabalin, paroxetine and topiramate) at the Department of Clinical Pharmacology, St. Olav’s Hospital, Trondheim, Norway. Analysis methods were based on liquid chromatography/tandem mass spectrometry or (for lamotrigine and valproic acid) enzyme immunoassay.
# Statistical analyses were performed using SPSS, version 23.0 (IBM SPSS Statistics for Windows, Armonk, NY, USA). Participants treated with the same substance before and after surgery, with one or more trough sample concentrations available, were included in the analysis. To allow interindividual and intraindividual comparisons, serum concentrations were adjusted for defined daily dose (DDD). For example, since DDD for citalopram is 20 mg, a DDD-adjusted citalopram concentration of 100 nmol/L could represent a measured concentration of 50, 100, or 200 nmol/L, given a daily dose of 10, 20, or 40 mg, respectively. To compare pre- to post-surgery concentrations, as well as pre- to post-diet concentrations, we used Wilcoxon signed rank test for substances with samples available for six or more individuals. We used Spearman’s correlation to explore the relationship between the ratio of the post-/pre-diet concentrations and (i) the distribution coefficient for the drug in question, i.e., the logarithm of the ratio of its concentration in a lipophilic and a hydrophilic solution (logD), as well as (ii) the weight loss in kilograms for pregabalin.
# [2] = octanol/water, pH 7.4; source not stated; cited from earlier work
# [3] = Table 2A, trough serum, adjusted for dose in DDDs
# [4] = Table 2A, trough serum, adjusted for dose in DDDs, last observation carried forward, median 379 days after surgery
# [5] = Table 2B, trough serum, adjusted for dose in DDDs, after pre-surgery low-calorie diet
# [6] = Table 2B, trough serum, adjusted for dose in DDDs, before low-calorie diet
# [7] = Table 2A, antiepileptics, trough serum, adjusted for dose in DDDs
# [8] = Table 2A, antiepileptics, trough serum, adjusted for dose in DDDs, last observation carried forward, median 379 days after surgery
# [9] = Table 2B, antiepileptics, trough serum, adjusted for dose in DDDs, after pre-surgery low-calorie diet
# [10] = Table 2B, antiepileptics, trough serum, adjusted for dose in DDDs, before low-calorie diet
# [11] = human, in vivo, 379 days after surgery (median), trough
compound,measurement,setting,value
CN(C)CCC=C1c2ccccc2CCc2ccccc21 [Amitriptyline],"Dose-adjusted drug concentration Median (IQR), Pre-diet/pre-surgery",[1]; [3],283 (N/A) nmol/L
same,"Dose-adjusted drug concentration Median (IQR), Post-surgery",[1]; [4],218 (N/A) nmol/L
same,"Dose-adjusted drug concentration Median (IQR), post-diet",[1]; [5],279 (N/A) nmol/L
same,"Dose-adjusted drug concentration Median (IQR), pre-diet",[1]; [6],283 (N/A) nmol/L
CN(C)CCCC1(c2ccc(F)cc2)OCc2cc(C#N)ccc21 (stereo not shown) [Citalopram],"Concentration, Post-surgery","[1]; Case 1, GBP, day +252, drug dose 10 mg",69 nM
same,"Concentration, Post-surgery","[1]; Case 1, GBP, day +374, drug dose 20 mg",158 nM
same,"Concentration, Baseline","[1]; Case 1, GBP, drug dose 10 mg",137 nM
same,"Concentration, Post-surgery","[1]; Case 2, GBP, day +178, drug dose 10 mg",42 nM
same,"Concentration, Post-surgery","[1]; Case 2, GBP, day +386, drug dose 20 mg",90 nM
same,"Concentration, Baseline","[1]; Case 2, GBP, drug dose 10 mg",89 nM
same,Reduction of dose-adjusted concentration on the last day of sampling,[1],19%
CNCC[C@H](Oc1cccc2ccccc12)c1cccs1 [Duloxetine],Course of dose-adjusted concentration after surgery,[1],continued to decrease
same,Change in dose-adjusted concentration over the pre-surgery low-calorie diet,[1],varied
same,"Dose-adjusted drug concentration Median (IQR), Pre-diet/pre-surgery","[1]; human, in vivo",127 (96–203) nmol/L
same,"Dose-adjusted drug concentration Median (IQR), post-diet","[1]; human, in vivo",105 (64–235) nmol/L
same,"Dose-adjusted drug concentration Median (IQR), pre-diet","[1]; human, in vivo",127 (96–203) nmol/L
same,"concentration at 379 days after surgery (median), trough","[1]; human, in vivo",82 nM
same,Reduction of dose-adjusted concentration on the last day of sampling,[1],35%
same,logD,[2],1.54
CNCCC(Oc1ccc(C(F)(F)F)cc1)c1ccccc1 (stereo not shown) [Fluoxetine],Course of dose-adjusted concentration after surgery,[1],continued to increase also after surgery
same,"Dose-adjusted drug concentration Median (IQR), Pre-diet/pre-surgery","[1]; human, in vivo",221 (157–371) nmol/L
same,"Dose-adjusted drug concentration Median (IQR), post-diet","[1]; human, in vivo",263 (182–333) nmol/L
same,"Dose-adjusted drug concentration Median (IQR), pre-diet","[1]; human, in vivo",259 (147–379) nmol/L
same,"concentration at 379 days after surgery (median), trough","[1]; human, in vivo",294 nM
NCC1(CC(=O)O)CCCCC1 [Gabapentin],"Dose-adjusted drug concentration Median (IQR), Pre-diet/pre-surgery",[1]; [7],34 (N/A) µmol/L
same,"Dose-adjusted drug concentration Median (IQR), Post-surgery",[1]; [8],35 (N/A) µmol/L
same,"Dose-adjusted drug concentration Median (IQR), post-diet",[1]; [9],43 (N/A) µmol/L
same,"Dose-adjusted drug concentration Median (IQR), pre-diet",[1]; [10],28 (N/A) µmol/L
same,Change in dose-adjusted concentration over the pre-surgery low-calorie diet,[1],increased
C[C@H]1NC(C)(C)CO[C@]1(O)c1cccc(Cl)c1 [Hydroxybupropion],"Dose-adjusted drug concentration Median (IQR), Pre-diet/pre-surgery",[1]; [3],"3,997 (N/A) nmol/L"
same,"Dose-adjusted drug concentration Median (IQR), Post-surgery",[1]; [4],"3,298 (N/A) nmol/L"
same,"Dose-adjusted drug concentration Median (IQR), post-diet",[1]; [5],"3,067 (N/A) nmol/L"
same,"Dose-adjusted drug concentration Median (IQR), pre-diet",[1]; [6],"2,732 (N/A) nmol/L"
Nc1nnc(-c2cccc(Cl)c2Cl)c(N)n1 [Lamotrigine],"Dose-adjusted drug concentration Median (IQR), Pre-diet/pre-surgery",[1]; [7],17 (15–23) µmol/L
same,"Dose-adjusted drug concentration Median (IQR), post-diet",[1]; [9],23 (19–29) µmol/L
same,"Dose-adjusted drug concentration Median (IQR), pre-diet",[1]; [10],17 (15–25) µmol/L
same,Change in dose-adjusted concentration over the pre-surgery low-calorie diet,[1],increased
same,"concentration at 379 days after surgery (median), trough","[1]; human, oral, Table 2A, antiepileptics, trough serum, adjusted for dose in DDDs, last observation carried forward, median 379 days after surgery, read-out: Dose-adjusted drug concentration Median (IQR), Post-surgery",18000 nM
CN1CCN2c3ncccc3Cc3ccccc3C2C1 (stereo not shown) [Mirtazapine],"Concentration, Post-surgery","[1]; Case 3, GBP, day +68, drug dose 15 mg",30 nM
same,"Concentration, Post-surgery","[1]; Case 3, GBP, day +368, drug dose 30 mg",203 nM
same,"Concentration, Baseline","[1]; Case 3, GBP, drug dose 15 mg",96 nM
same,"Concentration, Post-surgery","[1]; Case 4, Sleeve, day 213, drug dose 30 mg",87 nM
same,"Concentration, Post-surgery","[1]; Case 4, Sleeve, day 393, drug dose 45 mg",119 nM
same,"Concentration, Baseline","[1]; Case 4, Sleeve, drug dose 30 mg",140 nM
same,Change in dose-adjusted concentration over the pre-surgery low-calorie diet,[1],decreased
same,"Dose-adjusted drug concentration Median (IQR), Pre-diet/pre-surgery","[1]; human, in vivo",148 (131–170) nmol/L
same,"Dose-adjusted drug concentration Median (IQR), post-diet","[1]; human, in vivo",76 (50–102) nmol/L
same,"Dose-adjusted drug concentration Median (IQR), pre-diet","[1]; human, in vivo",138 (120–157) nmol/L
same,"concentration at 379 days after surgery (median), trough","[1]; human, in vivo",88 nM
same,Reduction of dose-adjusted concentration on the last day of sampling,[1],41%
Cc1cc2c(s1)Nc1ccccc1N=C2N1CCN(C)CC1 [Olanzapine],"Dose-adjusted drug concentration Median (IQR), Pre-diet/pre-surgery","[1]; human, in vivo",113 (N/A) nmol/L
Fc1ccc([C@@H]2CCNC[C@H]2COc2ccc3c(c2)OCO3)cc1 [Paroxetine],"Dose-adjusted drug concentration Median (IQR), Pre-diet/pre-surgery","[1]; human, in vivo",22 (N/A) nmol/L
same,"Dose-adjusted drug concentration Median (IQR), post-diet","[1]; human, in vivo",69 (N/A) nmol/L
same,"Dose-adjusted drug concentration Median (IQR), pre-diet","[1]; human, in vivo",22 (N/A) nmol/L
same,"Dose-adjusted drug concentration Median (IQR), Post-surgery",[1]; [11],167 (N/A) nmol/L
OCCOCCN1CCN(C2=Nc3ccccc3Sc3ccccc32)CC1 [Quetiapine],Change in dose-adjusted concentration over the pre-surgery low-calorie diet,[1],decreased
same,"Dose-adjusted drug concentration Median (IQR), Pre-diet/pre-surgery","[1]; human, in vivo",848 (N/A) nmol/L
same,"Dose-adjusted drug concentration Median (IQR), post-diet","[1]; human, in vivo",260 (N/A) nmol/L
same,"Dose-adjusted drug concentration Median (IQR), pre-diet","[1]; human, in vivo",848 (N/A) nmol/L
same,"Dose-adjusted drug concentration Median (IQR), Post-surgery",[1]; [11],239 (N/A) nmol/L
CN[C@H]1CC[C@@H](c2ccc(Cl)c(Cl)c2)c2ccccc21 [Sertraline],"Concentration, Post-surgery","[1]; Case 3, GBP, day +68, drug dose 200 mg",66 nM
same,"Concentration, Post-surgery","[1]; Case 3, GBP, day +368, drug dose 200 mg",78 nM
same,"Concentration, Baseline","[1]; Case 3, GBP, drug dose 200 mg",130 nM
same,Change in dose-adjusted concentration over the pre-surgery low-calorie diet,[1],decreased
same,"Dose-adjusted drug concentration Median (IQR), Pre-diet/pre-surgery","[1]; human, in vivo",51 (27–84) nmol/L
same,"Dose-adjusted drug concentration Median (IQR), post-diet","[1]; human, in vivo",39 (23–53) nmol/L
same,"Dose-adjusted drug concentration Median (IQR), pre-diet","[1]; human, in vivo",66 (43–87) nmol/L
same,"concentration at 379 days after surgery (median), trough","[1]; human, in vivo",25 nM
same,Reduction of dose-adjusted concentration on the last day of sampling,[1],51%
CC1(C)O[C@@H]2[C@@H](CO[C@@]3(COS(N)(=O)=O)OC(C)(C)O[C@@H]23)O1 [Topiramate],"Dose-adjusted drug concentration Median (IQR), Pre-diet/pre-surgery",[1]; [7],33 (N/A) µmol/L
same,"Dose-adjusted drug concentration Median (IQR), Post-surgery",[1]; [8],37 (N/A) µmol/L
same,"Dose-adjusted drug concentration Median (IQR), post-diet",[1]; [9],31 (N/A) µmol/L
same,"Dose-adjusted drug concentration Median (IQR), pre-diet",[1]; [10],39 (N/A) µmol/L
CCCC(CCC)C(=O)O [Valproic acid],"Dose-adjusted drug concentration Median (IQR), Pre-diet/pre-surgery",[1]; [7],533 (N/A) µmol/L
same,"Dose-adjusted drug concentration Median (IQR), Post-surgery",[1]; [8],529 (N/A) µmol/L
same,"Dose-adjusted drug concentration Median (IQR), post-diet",[1]; [9],759 (N/A) µmol/L
same,"Dose-adjusted drug concentration Median (IQR), pre-diet",[1]; [10],737 (N/A) µmol/L
COc1ccc(C(CN(C)C)C2(O)CCCCC2)cc1 (stereo not shown) [Venlafaxine],"Dose-adjusted drug concentration Median (IQR), Pre-diet/pre-surgery",[1]; [3],173 (88–443) nmol/L
same,"Dose-adjusted drug concentration Median (IQR), post-diet",[1]; [5],132 (87–215) nmol/L
same,"Dose-adjusted drug concentration Median (IQR), pre-diet",[1]; [6],172 (79–399) nmol/L
same,"concentration at 379 days after surgery (median), trough","[1]; human, oral, Table 2A, trough serum, adjusted for dose in DDDs, last observation carried forward, median 379 days after surgery, read-out: Dose-adjusted drug concentration Median (IQR), Post-surgery",168 nM
NCCC(Oc1ccc(C(F)(F)F)cc1)c1ccccc1 (stereo not shown) [norfluoxetine],Course of dose-adjusted concentration after surgery,[1],continued to increase also after surgery
